Results taken from PMC3006138, “Fexinidazole – A New Oral Nitroimidazole Drug Candidate Entering Clinical Development for the Treatment of Sleeping Sickness” (PLoS Neglected Tropical Diseases, 2010).
Where “and” joins values, the source holds several entries; their conditions need not be identical. Equal entries are not always repeated.

Assay: Whole-body autoradiography
Format: in vivo, rat
Description: Whole-body autoradiography in rats was conducted using [^14C]-radiolabelled fexinidazole. The site of the [^14C] label in the fexinidazole molecule on the bridging carbon atom ensured that the radioactivity would remain associated with both the sulfoxide and sulfone metabolites. The radiolabelled compound was administered at the dose of 800 mg/kg (approximately 3.7 MBq/kg, 100 µCi/kg) by gastric gavage to eight male albino Sprague Dawley rats. Two animals were sacrificed at each time point 2, 8, 24 or 48 h after administration and the quantitative radioactivity distribution in the organs and tissues was evaluated using quantitative whole-body autoradiography. […]
This study was conducted according to Protocol N° 0510-2007. A copy of the experimental protocol is included in Appendix 1.
FEXINIDAZOLE is a 5-nitroimidazole derivative biologically active against Trypanosoma parasites (T.b. rhodesiense and T.b. brucei) and useful in the treatment of the Human African Trypanosomiasis (HAT), known as sleeping sickness.
FEXINIDAZOLE is a compound currently under development by the Study Sponsor.
The objective of this study was to obtain information on the tissue distribution of radioactive drug-related material following oral administration of [14C]-FEXINIDAZOLE (800 mg/kg) to male Sprague Dawley rats.
The albino Sprague Dawley rat was chosen as the species for this study since it was one of the species used in the toxicological evaluation of the test compound. Only male animals were used as no gender differences were expected with respect to the aim of the study. The oral route of administration was chosen as this is the intended therapeutic route. The dose level was selected in agreement with the Study Sponsor and it is within the pharmacological relevant range. No overt toxicity was expected after single dosing at […]
The study was conducted on 8 male animals after single oral administration of [14C]- FEXINIDAZOLE (800 mg/kg, approximately 3.7 MBq/kg, 100 µCi/kg). The animals were sacrificed at 2, 8,24 and 48 hours after administration and each rat was analyzed by a validated Whole Body Autoradioluminography (WBA) method, in order to evaluate the quantitative tissue distribution of radioactivity.
A summary of the experimental design is reported below:
Animal no. Date of Dosing Administered Dose Samples collected and (oral administration) analyzed
M3, M4 100 µCi/kg Whole body sections
The experimental phase of the study started on June 10, 2008 and was completed on July […]
6.6. Preparation and Analysis of Dose Formulation
The test formulation was prepared on the day of dosing by suspending unlabelled FEXINIDAZOLE and [14C]-FEXINIDAZOLE (see section 6.1) in 5% Tween 80 and 0.5% Methyl cellulose 400 cP (Methocel) in water, in order to obtain [14C]- FEXINIDAZOLE at the final target concentration of 80 mg/mL, corresponding to a radioactivity concentration of about 370 kBq/mL (10 µCi/mL).
The test formulation was prepared by suspending an appropriate amount of unlabelled FEXINIDAZOLE in the dose vehicle. This formulation was homogenised using a Potter-Elvehjem homogenizer apparatus (teflon pestle of approx. 30 mm x 53 mm and glass tube of 40 mL), in order to obtain a fine suspension by up-and-down strokes, gently made by hand. The formulation was then collected and transferred from the homogeniser glass tube to the glass pot containing the [14C]-FEXINIDAZOLE.
During the preparation the test formulation was protected from light as far as possible.
The radioactivity concentration and homogeneity of the test formulation were determined, before administration, by liquid scintillation counting of triplicate weighed aliquots of test formulation. The radiolabelled test formulation was used immediately after formulation.
6.7.1. Administered Doses
The dose of [14C]-FEXINIDAZOLE was orally administered by gastric gavage at the target dose level of 800 mg/kg (radioactivity dose of about 3.7 MBq/kg, 100 µCi/kg) and at a target dose volume of about 10 mL/kg. […]

Structure (SMILES): CSc1ccc(OCc2ncc([N+](=O)[O-])n2C)cc1 [Fexinidazole, 1-methyl-2-((p-(methylthio)phenoxy)methyl)-5-nitroimidazole]
- brain-to-blood concentration ratio of radioactivity (800 mg/kg po, all times): 0.4–0.6
- Mean radioactivity concentration (Blood, 2h): 303.2 µgeq/g
- Mean radioactivity concentration (Blood, 8h): 273.0 µgeq/g
- Mean radioactivity concentration (Blood, 24h): 51.3 µgeq/g
- Mean radioactivity concentration (Blood, 48h): 14.3 µgeq/g
- Mean radioactivity concentration (Brain, 2h): 159.7 µgeq/g
- Mean radioactivity concentration (Brain, 8h): 148.5 µgeq/g
- Mean radioactivity concentration (Brain, 24h): 22.4 µgeq/g
- Mean radioactivity concentration (Brain, 48h): 5.7 µgeq/g
- Radioactivity concentration (Intestine wall, 2h, listed as [14C]-FEXINIDAZOLE): 4900 - 5600 µgeq/g and 5281.4 µgeq/g
